Reference: article PMC9335283 (Frontiers in Microbiology, 2022)
≈ marks a conversion by molar mass, not a printed value. Read-outs that look alike come from different tables or passages of the source. Where a SMILES comes first, the peptide text is derived from it.

What was measured:
PK-15 cells = assay: Cytotoxicity, WST-1 assay; type: cell-based
Protocol: Cells were seeded at a density of 1 × 10^5 cells/well in 48-well plates and cultured overnight before being used for assays described below. For cytotoxicity assay, mice peritoneal macrophages and PK-15 cells were prepared in a 48-well plate as described above and incubated with or without tested compounds for 2 h at 37°C with CO2. After 2 h incubation, cells were washed with a cell culture medium twice and continued to culture for 22 or 46 h. After 24 and 48 h incubation, 150 μl of 10% WST-1 reagent was added according to the protocols of the manufacturer. After 20 min incubation, absorbance was measured at 450 nm with a microplate reader (Bio-Rad, Japan) and was corrected for absorbance at 630 nm. Untreated cells were set as a control. The percent of cell viability (%) was calculated using the following formula: Cell viability (%) =OD450nm of treated sample/OD450nm of control×100%

red blood cells of mice = assay: Hemolytic activity assay; type: cell-based
Protocol: Murine erythrocytes and peritoneal macrophages were obtained from wild-type (WT) C57BL/6 mice (Chongqing Academy of Chinese Material Medical, China). Briefly, erythrocytes were obtained by collecting blood from the tail vein. […] The hemolytic activities of AMPs and antibiotics were determined as previously described (Song et al., [2020]). In brief, whole mice blood was centrifuged at 1,500 rpm for 5 min at room temperature and then washed three times with phosphate-buffered saline (PBS) to obtain red blood cells (RBCs). Subsequently, 2% RBCs in PBS were prepared. Then, aliquots of 100 μl RBCs were mixed with 100 μl tested compounds in PBS in polypropylene 96-well microtiter plates and incubated for 1 h at 37°C. After incubation, the plate was centrifuged for 5 min at 1,500 rpm and 100 μl supernatant was transferred to a new 96-well plate to determine the absorbance at 570 nm. RBCs in PBS served as negative control while RBCs treated with 1% Triton X-100 in PBS served as a positive control. The percent of hemolysis (%) was calculated using the following formula Hemolysise (%)=(OD570nm of treated sample-OD570nm of negative control)/(OD570nm of positive control-OD570nm of negative control)×100%

S. aureus [1] = assay: microbe, parasite or virus in culture; type: cell-based; settings: Staphylococcus aureus, 18 h
Protocol: (§1) S. aureus and S. enteritidis isolates were obtained from laboratory clinical isolates, and avian pathogenic E. coli was kindly provided by Professor Qingke Kong (College of Veterinary Medicine, Southwest University). […] Bacteria were cultured at 37°C for 18 h in MHB or LB agar plates.
(§2) Briefly, bacteria were maintained in MHB medium at 37°C and grown to mid-logarithmic growth phase before being tested. […] After incubation, minimum inhibitory concentration (MIC) was determined by the observation of turbidity, and minimum bactericidal concentration (MBC) was determined by colony counting. […] After overnight culture at 37°C, survival bacteria were counted.

E. coli [2] = assay: microbe, parasite or virus in culture; type: cell-based; settings: Escherichia coli, 18 h
Protocol: as §1, §2

S. enteritidis [3] = assay: microbe, parasite or virus in culture; type: cell-based; settings: Salmonella enterica, MHB, 18 h, 37°C, triplicate; for MBC: colony counting; for MIC: turbidity
Description: S. aureus and S. enteritidis isolates were obtained from laboratory clinical isolates, and avian pathogenic E. coli was kindly provided by Professor Qingke Kong (College of Veterinary Medicine, Southwest University). Mueller–Hinton broth (MHB; Beijing Land Bridge Technology Co., Ltd., China) was used as bacterial growth media for antimicrobial activity assays, and Luria–Bertani (LB; Qingdao Hope Bio-Technology Co., Ltd., China) agar plates were used for the colony-counting assay. Bacteria were cultured at 37°C for 18 h in MHB or LB agar plates.
Antimicrobial activity of AMPs and antibiotics was performed by the broth microdilution assay as reported previously (Wiegand et al., [2008]). Briefly, bacteria were maintained in MHB medium at 37°C and grown to mid-logarithmic growth phase before being tested. Then, 50 μl of peptides (0–80 μM) and antibiotics (0–40,960 μM) with triplicate were mixed with an equal volume of bacterial suspension (2 × 10^6 CFU/ml) in 96-well plates and incubated for 18 h at 37°C. After incubation, minimum inhibitory concentration (MIC) was determined by the observation of turbidity, and minimum bactericidal concentration (MBC) was determined by colony counting. […] After overnight culture at 37°C, survival bacteria were counted.

E. coli [4] = assay: SEM analysis of bacterial morphology; type: cell-based, Escherichia coli; settings: 1/16 MBC of each agent, 6 h, 37°C, 1 × 10^8 CFU/ml
Protocol: After incubation, bacterial suspension was centrifuged and washed with PBS three times. Then, bacterial pellets were fixed with 1.5 ml of 2.5% glutaraldehyde in PBS at 4°C overnight. Finally, samples were sent to the Lilai biomedicine experiment center (Sichuan, China) for SEM analysis.

S. enteritidis [5] = assay: Time-killing curve assay; settings: at sub-MBC (lowest concentrations with synergy), followed to 180 min
Protocol: (§3) The bacterial suspension was prepared as described above. […] After overnight culture, colony counting was performed.

E. coli [6] = assay: Time-killing curve assay; type: cell-based, Escherichia coli; settings: at sub-MBC (lowest concentrations with synergy), followed to 180 min
Protocol: as §3

S. aureus [7] = assay: Time-killing curve assay; type: cell-based, Staphylococcus aureus; settings: at sub-MBC (lowest concentrations with synergy), followed to 180 min
Protocol: as §3

E. coli [8] = assay: Motility assay on semisolid agar; type: cell-based, Escherichia coli; settings: alone at 1/4 MIC, 18 h
E. coli [9] = type: cell-based, Escherichia coli
Protocol: Drug resistance induction of E. coli was performed as previously reported. […] Bacteria from the highest concentration of drug combination were regrown, and MIC of erythromycin was measured, and then bacteria were treated again with the drug combination. The change in MIC was described by normalizing the MIC of the n generation to the MIC of first generation.

CC[C@H](C)[C@H](NC(=O)CNC(=O)[C@H](C)NC(=O)[C@H](C)NC(=O)[C@@H](NC(=O)[C@@H](NC(=O)[C@H](CC(N)=O)NC(=O)[C@@H](NC(=O)[C@H](C)NC(=O)[C@@H](NC(=O)[C@@H]1CCCN1C(=O)[C@@H](NC(=O)[C@H](CC(C)C)NC(=O)[C@@H]1CCCN1C(=O)[C@H](Cc1c[nH]c2ccccc12)NC(=O)[C@H](Cc1ccccc1)NC(=O)[C@H](CCCNC(=N)N)NC(=O)[C@H](CCCCN)NC(=O)[C@@H](NC(=O)[C@@H](N)CCCNC(=N)N)C(C)C)C(C)C)C(C)C)[C@@H](C)CC)[C@@H](C)O)C(C)C)C(=O)N[C@@H](CC(N)=O)C(=O)N[C@@H](CC(C)C)C(=O)N[C@@H](Cc1ccc(O)cc1)C(=O)N[C@@H](CCCCN)C(=O)N[C@@H](C)C(=O)N[C@H](C(=O)N[C@@H](CCCNC(=N)N)C(=O)N[C@@H](CCCNC(=N)N)C(=O)N[C@@H](CCCCN)C(=O)O)[C@@H](C)CC [CATH-3] (H-RVKRFWPLVPVAINTVAAGINLYKAIRRK-OH)
toxicity to PK-15 cells (PK-15 cells): did not show toxicity
hemolysis (red blood cells of mice; red cells of mouse, 1 h): < 20%

CN(C)[C@@H]1C(O)=C(C(N)=O)C(=O)[C@@]2(O)C(O)=C3C(=O)c4c(O)cccc4[C@@](C)(O)[C@H]3C[C@@H]12 [Tetracycline, tetracycline]
MBC (S. aureus [1]): 40 µM (≈ 17.8 µg/mL)
MBC (E. coli [2]): 10 µM (≈ 4.44 µg/mL)
MBC (S. enteritidis [3]): 640 µM (≈ 284 µg/mL)
MIC (S. enteritidis [3]): 40 µM (≈ 17.8 µg/mL)

CC[C@H](C)[C@H](NC(=O)[C@H](CCCCN)NC(=O)[C@H](CCCCN)NC(=O)[C@H](CC(C)C)NC(=O)[C@H](CCCNC(=N)N)NC(=O)[C@H](CCCCN)NC(=O)[C@H](CCCNC(=N)N)NC(=O)[C@@H](NC(=O)[C@H](CCCCN)NC(=O)[C@H](CCCCN)NC(=O)[C@H](CCCNC(=N)N)NC(=O)[C@H](CC(C)C)NC(=O)[C@H](CCCNC(=N)N)NC(=O)[C@H](CCCNC(=N)N)NC(=O)[C@H](Cc1ccccc1)NC(=O)[C@H](CCCNC(=N)N)NC(=O)CN)[C@@H](C)O)C(=O)NCC(=O)N[C@@H](CCCCN)C(=O)N[C@H](C(=O)N[C@@H](CC(C)C)C(=O)N[C@@H](CCCCN)C(=O)N[C@@H](Cc1c[nH]c2ccccc12)C(=O)N[C@H](C(=O)N1CCC[C@H]1C(=O)N1CCC[C@H]1C(=O)N[C@H](C(=O)N[C@H](C(=O)NCC(=O)N[C@@H](CO)C(=O)N[C@H](C(=O)N1CCC[C@H]1C(=O)N[C@@H](CC(C)C)C(=O)NCC(=O)N[C@@H](CS)C(=O)NCC(=O)O)[C@@H](C)CC)C(C)C)[C@@H](C)CC)[C@@H](C)CC)C(C)C [PMAP-36] (H-GRFRRLRKKTRKRLKKIGKVLKWIPPIVGSIPLGCG-OH)
cell viability (PK-15 cells; 2 h): < 30%
hemolysis (red blood cells of mice; red cells of mouse, 1 h): < 20%

CC[C@H]1OC(=O)[C@H](C)[C@@H](O[C@H]2C[C@@](C)(OC)[C@@H](O)[C@H](C)O2)[C@H](C)[C@@H](O[C@@H]2O[C@H](C)C[C@H](N(C)C)[C@H]2O)[C@](C)(O)C[C@@H](C)C(=O)[C@H](C)[C@@H](O)[C@]1(C)O [Erythromycin, erythromycin]
cell viability (PK-15 cells): < 30%
MBC (S. aureus [1]): > 5120 µM
MIC (S. aureus [1]): 5120 µM (≈ 3760 µg/mL)
E. coli cellular morphology by SEM (E. coli [4]): induced the formation of micelles
hemolysis (red blood cells of mice): > 95%
MBC (E. coli [2]): > 5120 µM
MIC (E. coli [2]): 40 µM (≈ 29.4 µg/mL)
time to kill all bacteria (S. enteritidis [5]): > 180 min
time to kill all bacteria (E. coli [6]): > 180 min
time to kill all bacteria (S. aureus [7]): > 180 min
effect on bacterial migration distance (E. coli [8]): did not affect bacterial migration distance
MIC of erythromycin increase (E. coli [9]): 16 fold
MIC increase (E. coli [9]; […], 14th generation, relative to first generation): 2 fold
MBC (S. enteritidis [3]): > 5120 µM
MIC (S. enteritidis [3]): 80 µM (≈ 58.7 µg/mL)

CC1(C)S[C@@H]2[C@H](NC(=O)[C@H](N)c3ccccc3)C(=O)N2[C@H]1C(=O)O [Ampicillin, ampicillin]
MBC (S. aureus [1]): 640 µM (≈ 224 µg/mL)
MIC (S. aureus [1]): 80 µM (≈ 28 µg/mL)
MBC (E. coli [2]): 160 µM (≈ 55.9 µg/mL)
MIC (E. coli [2]): 160 µM (≈ 55.9 µg/mL)
MBC (S. enteritidis [3]): > 5120 µM
MIC (S. enteritidis [3]): 5120 µM (≈ 1790 µg/mL)

CNC(C)C1CCC(N)C(OC2C(N)CC(N)C(OC3OCC(C)(O)C(NC)C3O)C2O)O1 (centres unmarked) [Gentamicin, gentamicin]
MBC (S. aureus [1]): 40 µM (≈ 19.1 µg/mL)
MIC (S. aureus [1]): 20 µM (≈ 9.55 µg/mL)
MBC (E. coli [2]): 2.5 µM (≈ 1.19 µg/mL)
MIC (E. coli [2]): 1.25 µM (≈ 0.597 µg/mL)
MBC (S. enteritidis [3]): 5 µM (≈ 2.39 µg/mL)
MIC (S. enteritidis [3]): 2.5 µM (≈ 1.19 µg/mL)
